How the values were obtained:
[1] = test system: MDA-MB-231 human breast cancer cells; assay: MTT cell viability assay, MDA-MB-231; assay type: cell-based; settings: MDA-MB-231, MTT, 24 h incubation
Procedure: Cell culture MCF-7, MDA-MB-231 human breast cancer cells, and fibroblasts skin cells were purchased from the ATCC—American Type Culture Collection. All cell lines were maintained in DMEM (Corning, Kennebunk, ME, USA). The medium was supplemented with 10% fetal bovine serum—FBS (Eurx, Gdansk, Poland) and 1% antimicrobial substances: penicillin–streptomycin (Corning, Kennebunk, ME, USA). The incubator asserted appropriate growth conditions required for these cell lines: 5% of CO2, at 37 °C, with the humidity between 90–95%. Cells were seeded in 100 mm round dishes. An amount of 0.05% trypsin containing 0.02% EDTA (Corning, Kennebunk, ME, USA) and phosphate-buffered saline (PBS) without calcium and magnesium (Corning, Kennebunk, ME, USA) was used to detach cells from a plate once 80–90% cell confluence was achieved. In the next step, cells were reseeded in six-well plates (density—5 × 10^5 of cells per well) in 1 mL of DMEM after a 24 h incubation used in the presented tests.
To examine the effect of Les-3331 on cell viability, the MTT assay was performed. […] The absorbance was measured using Spectrophotometer UV-VIS Helios Gamma (Unicam/ThermoFisher Scientific Inc., Waltham, MA, USA) at a wavelength of 570 nm. The obtained absorbance in untreated control cells was taken as 100%, while the survival of the cells incubated with tested compounds presented as a percentage of the control value.

MDA-MB-231 cells = assay: Mitochondrial membrane potential analysis (JC-1), MDA-MB-231; assay type: cell-based, human; settings: 24 h
Procedure: The JC-1 MitoScreen kit (BD Biosciences, San Diego, CA, USA) was used for the mitochondrial membrane potential (ΔΨm) analysis. The assay was performed using a flow cytometer (BD FACSCanto II, Becton Dickinson Biosciences Systems, San Jose, CA, USA). The Les-3331 and reference drug were used in 1 µM and 5 µM concentrations. After 24 h incubation with tested compounds, the assay was performed as described in the literature. Analysis of the obtained results was performed using FACSDiva software (version 6.1.3, BD Biosciences Systems, San Jose, CA, USA). The equipment was calibrated with BD Cytometer Setup and Tracking Beads (BD Biosciences, San Diego, CA, USA).

caspase-8 = assay: Caspase-8 concentration in MCF-7 cell lysates (ELISA); assay type: cell-based, human; settings: 24 h, control 0.901 ng/mL
Procedure: High sensitivity assay kits (EIAab Science Co., Ltd., Wuhan, China; Abcam plc., Cambridge, United Kingdom; Cloud-Clone Corp., Katy, TX, USA) were used to determine the concentrations of selected proteins in cell lysates after 24 h incubation with novel compound and reference drug in 1 µM and 5 µM concentrations. In brief, after trypsinization, cells were washed thrice with cold PBS and centrifuged at 1000× g for 5 min at 4 °C. Then, cells (1.5 × 10^6) were suspended in lysis buffer for whole-cell lysates. After the second centrifugation, cellular supernatants were frozen immediately at −70 °C. Untreated cancer cells were taken as a control.
(§1) The microtiter plates provided in the kits were pre-coated with an antibody specific to the analyzed antigen. The tests were carried out according to the manufacturer’s protocols.

LC3A = LC3A concentration in MDA-MB-231 cell lysates (ELISA); assay type: cell-based, human; settings: 24 h, control 2.965 ng/mL
Procedure: High sensitivity assay kits (EIAab Science Co., Ltd., Wuhan, China; Abcam plc., Cambridge, United Kingdom; Cloud-Clone Corp., Katy, TX, USA) were used to determine the concentrations of selected proteins in cell lysates […] In brief, after trypsinization, cells were washed thrice with cold PBS and centrifuged at 1000× g for 5 min at 4 °C. Then, cells (1.5 × 10^6) were suspended in lysis buffer for whole-cell lysates. After the second centrifugation, cellular supernatants were frozen immediately at −70 °C. Untreated cancer cells were taken as a control.
as §1

topoisomerase IIα [2] = assay: Flow cytometric analysis of anti-topoisomerase IIα antibody, MCF-7; assay type: cell-based, human; settings: 24 h
Procedure: (§2) To confirm the ELISA results, flow cytometric analysis of Top II activity using an anti-topoisomerase IIα antibody conjugated with phycoerythrin (PE) was performed. The Les-3331 and etoposide were used at 1 µM and 5 µM concentrations. Cancer cells were incubated for 24 h with tested compounds and the assay was carried out in accordance with the manufacturer’s protocol. Briefly, cells were centrifuged and resuspended in 4% formaldehyde. Then, cells were incubated at RT for 15 min and subsequently washed with excess PBS and centrifuged. Thereafter, ice-cold 90% methanol was added to the cells and they were incubated for 1 h in an ice bath. Next, cells were washed with excess PBS and centrifuged again. In the meantime, the primary antibody was diluted (1:100) in PBS. Then, cells were resuspended in the prepared primary antibody (100 µL) and incubated at RT, protected from light, for 1 h. Finally, cells were washed and resuspended in PBS (300 µL). The prepared samples were measured immediately. Analysis of the obtained results was performed using a flow cytometer (BD FACSCanto II, Becton Dickinson Biosciences Systems, San Jose, CA, USA) and FACSDiva software (v6.1.3, BD Biosciences Systems, San Jose, CA, USA). The equipment was calibrated with BD Cytometer Setup and Tracking Beads (BD Biosciences, San Diego, CA, USA).

topoisomerase IIα [3] = assay: Flow cytometric analysis of anti-topoisomerase IIα antibody, MDA-MB-231; assay type: cell-based, human; settings: 24 h
Procedure: as §2

## COc1cc([C@@H]2c3cc4c(cc3[C@@H](O[C@@H]3O[C@@H]5CO[C@@H](C)O[C@H]5[C@H](O)[C@H]3O)[C@H]3COC(=O)[C@H]23)OCO4)cc(OC)c1O [Etoposide, reference compound]
[1]
  IC50: > 50 µM
MDA-MB-231 cells; MDA-MB-231, 1 µM
  % of cells with decreased ΔΨm: 11.4%
MDA-MB-231 cells; MDA-MB-231, 5 µM
  % of cells with decreased ΔΨm: 15.6%
caspase-8; 1 µM
  Casp-8 concentration: 0.812 ng/mL
caspase-8; 5 µM
  Casp-8 concentration: 0.951 ng/mL
LC3A; MDA-MB-231, 1 µM
  LC3A concentration: 2.800 ng/mL
LC3A; MDA-MB-231, 5 µM
  LC3A concentration: 1.313 ng/mL
Topoisomerase IIα [2]; MCF-7, 1 µM
  % of cells without anti-topoisomerase IIα antibody: 8.6%
Topoisomerase IIα [2]; MCF-7, 5 µM
  % of cells without anti-topoisomerase IIα antibody: 11.8%
Topoisomerase IIα [3]; MDA-MB-231, 1 µM
  % of cells without anti-topoisomerase IIα antibody: 7.5%
Topoisomerase IIα [3]; MDA-MB-231, 5 µM
  % of cells without anti-topoisomerase IIα antibody: 9.1%

## CC(C)C(C(=O)O)N1C(=O)/C(=C/C(Cl)=C/c2ccc([N+](=O)[O-])cc2)SC1=S (stereo not drawn) [Les-3331, 2-{5-[(Z,2Z)-2-chloro-3-(4-nitrophenyl)-2-propenylidene]-4-oxo-2-thioxothiazolidin-3-yl}-3-methylbutanoic acid]
[1]
  IC50: 15.2 µM
MDA-MB-231 cells; MDA-MB-231, 1 µM
  % of cells with decreased ΔΨm: 21.8%
MDA-MB-231 cells; MDA-MB-231, 5 µM
  % of cells with decreased ΔΨm: 36.3%
caspase-8; 1 µM
  Casp-8 concentration: 1.050 ng/mL
caspase-8; 5 µM
  Casp-8 concentration: 1.253 ng/mL
LC3A; MDA-MB-231, 5 µM
  LC3A concentration: 1.258 ng/mL
Topoisomerase IIα [2]; MCF-7, 1 µM
  % of cells without anti-topoisomerase IIα antibody: 34.1%
Topoisomerase IIα [2]; MCF-7, 5 µM
  % of cells without anti-topoisomerase IIα antibody: 49.2%
Topoisomerase IIα [3]; MDA-MB-231, 1 µM
  % of cells without anti-topoisomerase IIα antibody: 5.4%
Topoisomerase IIα [3]; MDA-MB-231, 5 µM
  % of cells without anti-topoisomerase IIα antibody: 30.9%
